Results taken from patent US12233143B2, “Topical compositions containing rose oil and cannabidiol and methods of making and using the same” (priority 2019, dated 2025).
Several values for one entry are separate records, joined by “and”; a condition that tells them apart may be missing. Identical values can stand only once.

Key:
[1] = system: PMA-induced IL-8 release by NCTC-2544 keratinocytes; test: PMA-induced IL-8 release, ELISA; format: cell-based, human; settings: Dexamethasone 10^−7 M, PMA 0.1 μg/ml
Method: (§1) The effect of S-863d and S-863g on inflammation in keratinocytes was evaluated by measuring phorbol myristate acetate (PMA)-induced interleukin-8 (IL-8) and prostaglandin E2 (PGE2) release from a NCTC-2544 keratinocyte cell line by enzyme-linked immunosorbent assay (ELISA).
(§2) Materials: A NCTC-2544 human keratinocyte cell line (NCTC-2544 cells) was cultured at 37° C. in the presence of 5% CO2. The NCTC-2544 cells were grown in Dulbecco's Modified Eagle Medium (DMEM) supplemented with L-glutamine (2 mM), penicillin (50 U/mL), Streptomycin (50 μg/mL), and fetal calf serum (FCS) (10%). S-863d contained 3% phospholipids, 54% glycerin, 10% caprylic/capric triglyceride, 1% cannabidiol, 2% AlpineRoseActive™, 1% glycoin, 0.1% tocopherol, and water (ad 100%). The particle size (zAve) of S-863d was 90±50 nm, and the pH of S-863d was between 4.5 and 7.5. The total germ count of S-863d was <100 CFU/g. S-863d was stored at 4° C. in a dark space in a closed container. S-863g (negative control) contained 1% CBD in DMSO. S-863 d was evaluated at 0.004%, 0.02%, and 0.1%. S-863g was evaluated at 0.00044%, 0.0013%, and 0.004%.
(§3) Methods: The keratinocytes were seeded in 96-well plates and cultured for 24 hours in culture medium. The medium was then replaced by culture medium containing or not (control) the test compounds or the reference compound (dexamethasone at 10′ M for IL-8 assay and indomethacin at 10′ M for PGE2 assay) and the cells were pre-incubated for 24 hours. After pre-incubation, the medium was replaced by culture medium containing or not (control) the test compounds or the reference compounds and the inflammatory inducer phorbol myristate acetate (PMA) at 0.1 μg/mL was added. The cells were further incubated for 24 hours. A control without inducer was performed in parallel (non-stimulated control condition). All experimental conditions were performed in triplicate. IL-8 and PGE2 released in the culture supernatants were measured by ELISA.
(§4) Inhibition of IL-8 and PMA-induced PGE2 release was measured using the following formula: […]

[2] = system: PMA-induced PGE2 release by NCTC-2544 keratinocytes; test: PMA-induced PGE2 release, ELISA; format: cell-based, human
Method: as §1, §2, §3, §4

[3] = system: human keratinocyte stem cells (KSC); test: Migration of keratinocyte stem cells, scratch wound gap recovery; format: cell-based; settings: 24 hours of incubation
Method: The effect of S-863d and S-863g on wound healing in keratinocytes was evaluated. The migration of human keratinocyte stem cells (KSC) was evaluated by measuring wound recovery using imaging on a system whereby a “wound gap” was created by scratching.
Materials: Human keratinocyte cells (KSC) were used at the third passage and cultured at 37° C. in the presence of 5% CO2. The NHEK cells were grown in keratinocyte serum free media supplemented with gentamycin (25 μg/mL), pituitary extract (PE) (25 μg/mL), and epidermal growth factor (EGF) (0.25 ng/ml). S-863d contained 3% phospholipids, 54% glycerin, 10% caprylic/capric triglyceride, 1% cannabidiol, 2% AlpineRoseActive™, 1% glycoin, 0.1% tocopherol, and water (ad 100%). The particle size (zAve) of S-863d was 90±50 nm, and the pH of S-863d was between 4.5 and 7.5. The total germ count of S-863d was <100 CFU/g. S-863d was stored at 4° C. in a dark space in a closed container. S-863g (negative control) contained 1% CBD in DMSO. S-863d was evaluated at 0.004%, 0.02%, and 0.1%. S-863g was evaluated at 0.00044%, 0.0013%, and 0.004%.
Methods: The KSCs were seeded in 24-well plates (previously coated with a collagen I solution) and cultured in culture medium for 24 hours. The medium was then replaced by assay medium and an artificial “wound gap” was generated by scratching the cell monolayers. The KSCs were labeled with calcien-AM. After 30 minutes of incubation (TO), the medium was replaced by assay medium containing or not (control condition) the test compounds or the reference compound (e.g. epidermal growth factor (EGF) at 10 ng/mL) and the cells were further incubated for 24 hours. The labeling with calcein-AM was renewed before the final timepoint. All experimental conditions were performed in triplicate. Cell migration into the migration zone was observed after 0 (TO) and 24 hours of incubation using a high-resolution imaging system INCell Analyzer′ 2200 (GE Healthcare) automated microscope and the artificial wound area was analyzed using ImageJ software. One picture was taken per well (objective lens×4). The artificial wound area was measured after 24 hours of incubation and compared to the area measured at TO in order to visualize and quantify the wound recovery. The effect of compounds on cell migration was compared to the untreated control.
The migration area (percentage of wound recovery) was calculated using the following formula: […]

Molecule: C[C@@H]1C[C@H]2[C@@H]3CCC4=CC(=O)C=C[C@]4(C)[C@@]3(F)[C@@H](O)C[C@]2(C)[C@@]1(O)C(=O)CO [Dexamethasone, dexamethasone]
- IL-8 % Stimulated control [1]: 18%
- IL-8 Mean [1]: 22112 pg/mL
- IL-8 (pg/ml) dilution factor adjusted ([1]; single replicate): 18117 pg/mL and 23002 pg/mL and 25217 pg/mL
- inhibition at 0.1 µM ([1]; Homo sapiens, NCTC-2544, read-out: IL-8 % Relative inhibition): 82%

Molecule: COc1ccc2c(c1)c(CC(=O)O)c(C)n2C(=O)c1ccc(Cl)cc1 [Indomethacin, indomethacin]
- inhibition at 1 µM ([2]; Homo sapiens, NCTC-2544, read-out: PGE2 % Relative inhibition): > 100%
- PGE2 Mean ([2]; Indomethacin 10^−6 M, PMA 0.1 μg/ml, non-diluted samples): <39 pg/mL
- PGE2 (pg/ml) dilution factor adjusted ([2]; Indomethacin 10^−6 M, PMA 0.1 μg/ml, non-diluted samples, single replicate): <39 pg/mL
- PGE2 % Stimulated control ([2]; Indomethacin 10^−6 M, PMA 0.1 μg/ml, extrapolated from values below detection limit): <0%
- Effect on PMA-induced PGE2 release (in words) ([2]; NCTC-2544 cells, PMA 0.1 μg/mL): completely inhibited

Molecule: epidermal growth factor [EGF]
- Effect on KSC migration / wound recovery (in words) ([3]; all tested concentrations): marked stimulation
- Wound Recovery Mean ([3]; EGF 10 ng/ml): 73%
- Wound recovery % Control ([3]; EGF 10 ng/ml): 183 % Control
- 24 Hours Wound area ([3]; EGF 10 ng/ml, single image): 0.46 mm^2 and 0.50 mm^2 and 0.76 mm^2
- Wound Recovery ([3]; EGF 10 ng/ml, single image): 80% and 75% and 64%
